Assay results taken from patent publication US8598339B2, “Withanolide isolated from Physalis longifolia and analogs and methods of use thereof” (University of Kansas, priority 2011, dated 2013).
Like-named read-outs stand apart in the source and are kept apart here.

Experiments:
[1] = system: HS766T; assay: Pancreatic cancer cell viability, HS766T; assay type: cell-based
Procedure: (§1) The activity of the withanolides of this invention were tested in pancreatic cancer cells. […] Moreover, IC50 values were determined for these compounds (Table 14).

[2] = system: Mia PaCa-2; assay: Pancreatic cancer cell viability, Mia PaCa-2; assay type: cell-based; conditions: Homo sapiens
Procedure: as §1

[3] = system: heat shock factor (HSF) / HSE-luciferase in Hs766T cells; assay: HSE-luciferase reporter, Hs766T; assay type: cell-based; parameters: dose or concentration left out as unconfirmed; conditions: heat shock 42° C. 30 minutes; recovery 8 hours
Procedure: To monitor the activation of heat shock factor (HSF) and heat shock-mediated signal transduction pathways, Hs766T cells were transfected with a HSE-luciferase construct, then treated with 3 mM of the selected withanolides for 8 hours. The cells were heat shocked at 42° C. for 30 minutes and allowed to recover at 37° C. for 8 hours. Cells were lysed and luciferase activity was measured on a plate reader.

[4] = system: melanoma cells B16F10; assay: MTS cell viability assay, B16F10; assay type: cell-based; conditions: Mus musculus
Procedure: (§2) Human carcinoid cells, NCI-H727 (ATCC, Manassas, Va.), were cultured under standard conditions. Squamous cell carcinoma of head and neck cells, MDA1986 (Myers, et al. (2002) Clin. Cancer Res. 8:293) and JMAR (Swan, et al. (2003) Oral Oncol. 39:648-55); and melanoma cells lines B16F10 (ATCC, Manassas, Va.) and SKMEL28 (CLS, Eppelheim, Germany) were cultured in DMEM medium supplemented with 10% heat-inactivated fetal bovine serum (Sigma-Aldrich, St. Louis, Mo.), 1×MEM-essential amino acid, 1×MEM vitamin, and penicillin/streptomycin (Sigma-Aldrich, St. Louis, Mo.) in a humid environment of 5% CO2 at 37° C. Activity of withanolides against DRO81-1 and TT medullary thyroid cancer cells was also determined.
(§3) Cells were cultured in 96 well plates at a concentration of 1-2×10^4 cells/mL. Cell viability was assessed with the nonradioactive cell proliferation MTS assay using Cell Titer 96AQUEOUS One Solution Reagent (PROMEGA, Madison, Wis.), according to the manufacturer's instruction. After a 72-hour treatment, 20 μL of Cell Titer 96AQUEOUS One Solution Reagent were added to each well and incubated for 3 hours at 37° C. 5% CO2, and formazan absorbance was measured at 490 nm.

[5] = system: human melanoma SKMEL28 cells; assay: MTS cell viability assay, SKMEL28; assay type: cell-based; conditions: Homo sapiens
Procedure: as §2, §3
A cell viability MTS assay was carried out to determine the anti-cancer effect of the withanolides on human melanoma SKMEL28 cells. Cells were treated for 72 hours and cell viability was determined according to the manufacturer's instruction.

[6] = system: squamous cell carcinoma of head and neck cells MDA1986; assay: MTS cell viability assay, MDA1986; assay type: cell-based
Procedure: as §2, §3

[7] = system: squamous cell carcinoma of head and neck cells JMAR; assay: MTS cell viability assay, JMAR; assay type: cell-based
Procedure: as §2, §3

[8] = system: MRC-5; assay: MTS cell viability assay, MRC-5; assay type: cell-based; conditions: Homo sapiens
[9] = system: RET, mTOR, 4E-BP1, P70S6 kinase, akt, pERK in medullary thyroid cancer cells; assay: Mechanistic pathway protein levels in medullary thyroid cancer cells; assay type: cell-based; conditions: for pERK / total and phosphorylated protein levels of RET, mTOR, 4E-BP1, P70S6 kinase: 24 hours, 0.25, 0.5, 1 or 3 μM
Procedure: Additional analysis of X005, X032 and X033 was carried out in medullary thyroid cancer cells. […] Therefore, this analysis indicates the importance of this double bond in the A-ring to anti-cancer activity.

[10] = system: human carcinoid cells NCI-H727; assay: MTS cell viability assay, NCI-H727; assay type: cell-based; conditions: NCI-H727, 72 h
Procedure: as §2, §3

[11] = system: DRO81-1 medullary thyroid cancer cells; assay: MTS cell viability assay, DRO81-1; assay type: cell-based; conditions: 72 h
Procedure: as §2, §3

[12] = system: hsf1 and client proteins of Hsp90 in Hs766T cells; assay: Western blot, Hs766T; assay type: cell-based
[13] = system: hsf1 and client proteins of Hsp90 in MIA PaCa-2 cells; assay: Western blot, MIA PaCa-2; assay type: cell-based
[14] = system: HSF1, Hsp70 and Hsp40 mRNA; assay: HSF1, Hsp70 and Hsp40 mRNA levels; assay type: cell-based; conditions: Control 1.0
Procedure: Levels of HSF1, Hsp70 and Hsp40 mRNA were also determined in response to treatment with SX002 or X003 for 8 or 16 hours.

[15] = system: Ames test strain TA98; assay: Ames test, TA98
[16] = system: Ames test strain TA100; assay: Ames test, TA100
[17] = system: Ames test strain TA1535; assay: Ames test, TA1535

SMILES: CC1=C(C)C(=O)O[C@@H]([C@@H](C)[C@H]2CC[C@H]3[C@@H]4C[C@H]5O[C@]56[C@@H](O)C=CC(=O)[C@]6(CO)[C@H]4CC[C@]23C)C1 (stereo in doubt) [Compound X030]
- IC50 ([1]; read-out: IC50): 800 nM
- IC50 ([2]; MIA PaCa2, read-out: IC50): 800 nM
- heat shock-induced increase in luciferase activity [3]: substantially reduced

SMILES: CC1=C(CO)C(=O)O[C@@H]([C@@H](C)[C@H]2CC[C@H]3[C@@H]4C[C@H]5O[C@]56[C@@H](O)C=CC(=O)[C@]6(C)[C@H]4[C@@H](O)C[C@]23C)C1 [Compound X004]
- IC50 ([4]; B16-F10, Table 5): 490 nM
- IC50 ([5]; SK-MEL-28, Table 5): 2990 nM
- IC50 ([6]; Table 5): 2640 nM
- IC50 ([7]; Table 5): 770 nM
- IC50 ([8]; MRC5, Table 5): 3600 nM
- IC50 ([1]; read-out: IC50): 1600 nM
- IC50 ([2]; MIA PaCa2, read-out: IC50): 1300 nM

SMILES: CO[C@H]1CC(=O)[C@]2(CO)[C@H]3CC[C@]4(C)[C@@H]([C@H](C)[C@H]5CC(C)=C(CO)C(=O)O5)CC[C@H]4[C@@H]3C[C@H]3O[C@]32[C@H]1O [Compound X005]
- IC50 ([4]; B16-F10, Table 5): 3210 nM
- IC50 ([5]; SK-MEL-28, Table 5): 9270 nM
- IC50 ([6]; Table 5): > 25000 nM
- IC50 ([7]; Table 5): 4690 nM
- IC50 ([8]; MRC5, Table 5): 6500 nM
- RET, mTOR, 4E-BP1, p70S6 kinase and akt levels ([9]; medullary thyroid cancer cells): dose-dependent increase

SMILES: CC1=C(CO)C(=O)O[C@@H]([C@@H](C)[C@H]2CC[C@H]3[C@@H]4C[C@H]5O[C@]56[C@@H](O)[C@@H](OS(=O)(=O)O)CC(=O)[C@]6(CO)[C@H]4CC[C@]23C)C1 [Compound X017]
- IC50 ([4]; B16-F10, Table 5): 1330 nM
- IC50 ([5]; SK-MEL-28, Table 5): 4800 nM
- IC50 ([6]; Table 5): 2020 nM
- IC50 ([7]; Table 5): 2250 nM
- IC50 ([8]; MRC5, Table 5): 3330 nM
- IC50 ([1]; read-out: IC50): 1800 nM
- IC50 ([2]; MIA PaCa2, read-out: IC50): 1400 nM

SMILES: CC(=O)OCC1=C(C)C[C@H]([C@@H](C)C2CC[C@H]3[C@@H]4C[C@H]5O[C@]56[C@@H](OC(C)=O)C=CC(=O)[C@]6(CO)[C@H]4CC[C@]23C)OC1=O (stereo partly shown) [Compound X002, 4,27-diactyl X001]
- IC50 ([4]; B16-F10, Table 1, 72-hour treatment): 98 nM
- IC50 ([5]; SK-MEL-28, 72 h, Table 1, 72-hour treatment): 810 nM
- IC50 ([5]; SK-MEL-28, 72 h, Table 3, treated for 72 hours, NA = no activity): 1250 nM
- IC50 ([6]; Table 1, 72-hour treatment): 2240 nM
- IC50 ([7]; Table 1, 72-hour treatment): 140 nM
- IC50 [10]: 370 nM
- IC50 ([8]; MRC5, Table 1, 72-hour treatment): 410 nM
- IC50 [11]: 480 nM
- IC50 [1]: 400 nM
- IC50 [2]: 220 nM
- heat shock-induced increase in luciferase activity [3]: substantially reduced
- stress and client protein response (western blot) [12]: induced oxidative and proteotoxic stress, while depleting hsf1 and client proteins of Hsp90
- stress and client protein response (western blot) [13]: induced oxidative and proteotoxic stress, while depleting hsf1 and client proteins of Hsp90
- HSF1 mRNA level ([14]; 8 hours): 1.3
- HSP40 mRNA level ([14]; 8 hours): 13.1
- HSP70 mRNA level ([14]; 8 hours): 56.6
- HSF1 mRNA level ([14]; 16 hours): 1.1
- HSP40 mRNA level ([14]; 16 hours): 15.3
- HSP70 mRNA level ([14]; 16 hours): 196.7

SMILES: CC(=O)O[C@H]1C=CC(=O)[C@]2(CO)[C@H]3CC[C@]4(C)[C@@H]([C@H](C)[C@H]5CC(C)=C(C)C(=O)O5)CC[C@H]4[C@@H]3C[C@H]3O[C@]132 [Compound X032]
- IC50 ([4]; B16-F10, Table 5): 190 nM
- IC50 ([5]; SK-MEL-28, Table 5): 640 nM
- IC50 ([6]; Table 5): 490 nM
- IC50 ([7]; Table 5): 120 nM
- IC50 ([8]; MRC5, Table 5): 160 nM
- pERK [9]: increased at higher concentrations
- total and phosphorylated protein levels of RET, mTOR, 4E-BP1, P70S6 kinase [9]: dose-dependent down-regulation
- potency in pathway analysis relative to X001 ([9]; medullary thyroid cancer cells): more potent than X001

SMILES: CN(N=O)C(=O)N[C@H]1C(O)O[C@H](CO)[C@@H](O)[C@@H]1O (mixture of isomers) [Streptoxotocin, reference compound]
- Positive Significance (− to +++) ([15]; 2.5E−06 M, TA98 +S9): −
- Positive Significance (− to +++) ([15]; 2.5E−06 M, TA98 −S9): −
- Positive Significance (− to +++) ([16]; 2.5E−06 M, TA100 +S9): +++ (Very strong positive, if p < 0.001, denoted as “+++”.)
- Positive Significance (− to +++) ([16]; 2.5E−06 M, TA100 −S9): +++ (Very strong positive, if p < 0.001, denoted as “+++”.)
- Positive Significance (− to +++) ([17]; 2.5E−06 M, TA1535 +S9): ++ (Strong positive, if p < 0.01, denoted as “++”.)
- Positive Significance (− to +++) ([17]; 2.5E−06 M, TA1535 −S9): +++ (Very strong positive, if p < 0.001, denoted as “+++”.)

SMILES: O=c1c(O)c(-c2ccc(O)c(O)c2)oc2cc(O)cc(O)c12 [Quercetin, reference compound]
- Positive Significance (− to +++) ([15]; 3.0E−05 M, TA98 +S9): +++ (Very strong positive, if p < 0.001, denoted as “+++”.)
- Positive Significance (− to +++) ([15]; 3.0E−05 M, TA98 −S9): +++ (Very strong positive, if p < 0.001, denoted as “+++”.)
- Positive Significance (− to +++) ([16]; 3.0E−05 M, TA100 +S9): −
- Positive Significance (− to +++) ([16]; 3.0E−05 M, TA100 −S9): −
- Positive Significance (− to +++) ([17]; 3.0E−05 M, TA1535 +S9): −
- Positive Significance (− to +++) ([17]; 3.0E−05 M, TA1535 −S9): −

SMILES: CC(=O)OC[C@]12C(=O)C=C[C@H](OC(C)=O)[C@]13O[C@@H]3C[C@H]1[C@@H]3CC[C@H]([C@H](C)[C@H]4CC(C)=C(C)C(=O)O4)[C@@]3(C)CC[C@@H]12 [Compound X033]
- IC50 ([4]; B16-F10, Table 5): 130 nM
- IC50 ([5]; SK-MEL-28, Table 5): 270 nM
- IC50 ([6]; Table 5): 110 nM
- IC50 ([7]; Table 5): 240 nM
- IC50 ([8]; MRC5, Table 5): 510 nM
- pERK [9]: increased at higher concentrations
- total and phosphorylated protein levels of RET, mTOR, 4E-BP1, P70S6 kinase [9]: dose-dependent down-regulation
- potency in pathway analysis relative to X001 ([9]; medullary thyroid cancer cells): more potent than X001
